Assay results from publication PMC11896996, “Emodin mitigates rheumatoid arthritis through direct binding to TNF-α” (Frontiers in Pharmacology, 2025).

Biological target: T1, TNF-α (Homo sapiens, UniProt P01375)
T1 construct: Human TNF-α recombinant protein (Peprotech)
Experiment: SPR (Biacore T200, hTNF-α immobilized on CM5); BLI gave KD […]; TNF-α-TNFR1 ELISA IC50 […]
Format: binding

T1 sequence (P01375 77-233): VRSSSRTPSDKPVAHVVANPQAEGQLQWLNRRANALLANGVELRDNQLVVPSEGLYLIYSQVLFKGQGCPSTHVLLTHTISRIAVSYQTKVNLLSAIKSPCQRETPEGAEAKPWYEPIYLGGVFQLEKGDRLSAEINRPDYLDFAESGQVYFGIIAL

`Cc1cc(O)c2c(c1)C(=O)c1cc(O)cc(O)c1C2=O` [emodin, 1,3,8-trihydroxy-6-methylanthraquinone] was tested, and the Kd was roughly 26.5 µM.
